Measurements taken from PMC4722623, “Novel c-Met inhibitor suppresses the growth of c-Met-addicted gastric cancer cells” (BMC Cancer, 2016).

How the values were obtained:
c-Met [1] = biological target: T1, c-Met (Homo sapiens, UniProt P08581); test: biochemical; conditions: read-out: IC50 (nM) in c-Met enzyme assay
T1 construct: recombinant kinase domain of c-Met

c-Met [2] = biological target: T1, c-Met; test: HTRF c-Met kinase assay; also radiometric kinase panel (Met activity -2 at […]); assay type: biochemical; conditions: read-out: IC50 (nM) in c-Met enzyme assay

T1 sequence (P08581 956-1390 limits assumed): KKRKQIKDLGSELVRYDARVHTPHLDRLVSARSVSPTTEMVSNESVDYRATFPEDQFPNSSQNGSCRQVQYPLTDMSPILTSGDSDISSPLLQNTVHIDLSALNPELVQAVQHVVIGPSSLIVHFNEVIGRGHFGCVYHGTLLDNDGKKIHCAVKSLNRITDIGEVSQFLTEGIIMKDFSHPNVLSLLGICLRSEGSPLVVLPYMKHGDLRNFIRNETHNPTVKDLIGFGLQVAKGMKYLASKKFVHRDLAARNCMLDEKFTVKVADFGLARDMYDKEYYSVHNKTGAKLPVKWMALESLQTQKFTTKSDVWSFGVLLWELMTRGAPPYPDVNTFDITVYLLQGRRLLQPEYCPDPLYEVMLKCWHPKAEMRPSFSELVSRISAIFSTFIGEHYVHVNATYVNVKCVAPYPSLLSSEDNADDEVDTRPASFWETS

IC50 (c-Met [1]) [nM] | IC50 (c-Met [2]) [nM] | SMILES
6.3 | – | Cn1cc(-c2cnc3nnn(CC4CNc5ncccc5O4)c3n2)c2ccccc21 (centres unmarked) [KRC-00509]
– | 9 | FC(F)(F)c1cc(-c2cnc3nnn(CC4CNc5ncccc5O4)c3n2)ccc1OCCN1CCOCC1 (centres unmarked) [KRC-00715]
